Test results published in US6503935B1, “Imidazoles and related compounds as α1A agonists” (Abbott Laboratories, priority 1998, dated 2003).
Structures can show the parent of a compound that is named as a salt. Where two headings read alike, the source gives them in different places.

Tests used:
[1] = system: Anesthetized Dogs; test: Mean arterial pressure (MAP) in anesthetized dogs; assay type: in vivo, dog; conditions: iv dose causing a maximum increase in MAP of 20 mm Hg, anesthetized female dogs
From the text: In vivo Functional Assays-Assessment of Intrurethral Pressure (IUP) and Mean Arterial Pressure (MAP) in Anesthetized Dogs
Female dogs (Marshall Farms, North Rose, N.Y.) greater that 2 years of age and weighing between 12 and 15 kg were used in these studies. At least 2 weeks prior to any agonist dosing, dogs were instrumented for the chronic measurement of arterial blood pressure by implanting a telemetry transducer/transmitter (TA11PA-C40, Data Sciences International, St. Paul, Minn.) into a carotid artery.
On the test day, dogs fasted since the previous afternoon were pre-anesthetized with thiopental sodium 15 mg/kg i.v. (Pentothal™, Abbott) and intubated. Anesthesia was maintained by allowing the dog to spontaneously breathe a mixture of isoflurane (2.5 to 3 volume %) and oxygen delivered by a Narkomed Standard anesthesia system (North American Drager, Telford, Pa.). An Abbocath-T™ i.v. catheter (18-G, Abbott) was inserted into the cephalic vein for the administration of agonists. A telemetry receiver (RA1310, DataSciences) was placed under the head of each dog and was interfaced to a computerized data acquisition system (Modular Instruments Inc.(MI2), Malvern, Pa.) which allowed for the continuous calibrated recording of arterial blood pressure which was electronically filtered to determine its mean value (MAP).
Dogs with chronic telemetry implants anesthetized as described above were placed in dorsal recumbency and a balloon catheter was inserted into the urethral orifice and advanced approximately 15 cm until the tip was well inside the bladder. The balloon was then inflated with 1 ml of room air and the catheter slowly withdrawn until resistance (corresponding to the bladder neck) was evident. The balloon was then deflated and the catheter withdrawn an additional 2 cm. The balloon was then reinflated and its catheter port connected to a Gould Statham P23Dd pressure transducer interfaced to a computerized data acquisition system (Modular Instruments, Inc., Malvern, Pa.) for the measurement of intraurethral pressure. Increasing iv doses of test agonists were administered and the maximum effect of each dose on IUP was recorded. The effect of each dose was allowed to return to baseline before the next dose was given.
From the resulting dose response curve, an ED5 value, for the dose causing a maximum increase in IUP of 5 mm Hg, could be estimated. An ED20 value for the dose causing a maximum increase in MAP of 20 mm Hg could also be estimated. A selectivity ratio of MAP ED20 vs. IUP ED5 was calculated.

[2] = system: Anesthetized Dogs; test: Urethral pressure profile in anesthetized dogs; assay type: in vivo, dog; conditions: increasing iv doses, FIG. 1
From the text: Assessment of Urethral Pressure Profile in Anesthetized Dogs
Dogs instrumented and anesthetized as decribed above were placed in left lateral recumbency and a dual pressure sensor catheter (SPC-771, Millar Instruments, Houston, Tex.) was inserted into the urethra and advanced into the bladder. The proximal pressure sensor was interfaced to a MI2 computerized data acquisition system for the measurement of lower urinary tract pressures. At a resting intravesical pressure of approximately 5 cm of H2O, urethral pressure was measured from the sensor as the catheter was withdrawn using a modified syringe pump (Model 22, Harvard Apparatus, South Natick, Mass.) at its maximal rate of 0.83 mm/sec. Measurement from the proximal sensor allowed easy reinsertion as the distal 5 cm of the catheter remains in the urethra after the total profile has been obtained. Three resting urethral pressure profiles were obtained at 5 minute intervals before dosing, then a single profile was initiated 30 sec after each increasing iv dose during the time corresponding to the maximum arterial pressure effects of that dose. The increase in arterial pressure seen after each agonist dose was allowed to return to baseline before the next dose was given.

[3] = system: Anesthetized Dogs; test: Intraurethral pressure (IUP) in anesthetized dogs; assay type: in vivo, dog; conditions: Canis lupus familiaris; iv dose causing a maximum increase in IUP of 5 mm Hg, anesthetized female dogs; read-out: Mean IUP ED5
[4] = target: T1, α1A (rat submaxillary gland) (Rattus norvegicus, UniProt P43140); test: Radioligand binding with [3H]-prazosin, α1A
T1 construct: α1A (rat submaxillary gland); from tissue; host or cells: rat submaxillary gland
T1 sequence (P43140 1-466): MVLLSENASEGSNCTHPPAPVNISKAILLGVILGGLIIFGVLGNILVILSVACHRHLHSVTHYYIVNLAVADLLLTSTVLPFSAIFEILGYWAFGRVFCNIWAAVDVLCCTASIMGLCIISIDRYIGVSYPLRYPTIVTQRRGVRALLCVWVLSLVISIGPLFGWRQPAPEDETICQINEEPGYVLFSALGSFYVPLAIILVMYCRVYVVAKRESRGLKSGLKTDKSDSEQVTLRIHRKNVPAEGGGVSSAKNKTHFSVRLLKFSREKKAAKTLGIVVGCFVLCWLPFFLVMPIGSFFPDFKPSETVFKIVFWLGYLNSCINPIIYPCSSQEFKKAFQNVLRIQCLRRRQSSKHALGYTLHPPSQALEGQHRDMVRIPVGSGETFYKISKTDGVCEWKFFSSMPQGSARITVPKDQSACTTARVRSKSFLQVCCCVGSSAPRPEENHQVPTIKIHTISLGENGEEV
Method in brief: (§1)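 Radioligand binding with [3H]-prazosin: α1A from rat submaxillary gland; α1b hamster receptor and α1d rat receptor, each expressed in mouse fibroblasts.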

[5] = target: T2, α1b (hamster receptor expressed in mouse fibroblasts) (Mesocricetus auratus, UniProt P18841); test: Radioligand binding with [3H]-prazosin, α1b; conditions: read-out: Radioligand Binding Ki α1b (Hamster)
T2 construct: expressed in transfected cells; host or cells: mouse fibroblasts
T2 sequence (P18841 1-515): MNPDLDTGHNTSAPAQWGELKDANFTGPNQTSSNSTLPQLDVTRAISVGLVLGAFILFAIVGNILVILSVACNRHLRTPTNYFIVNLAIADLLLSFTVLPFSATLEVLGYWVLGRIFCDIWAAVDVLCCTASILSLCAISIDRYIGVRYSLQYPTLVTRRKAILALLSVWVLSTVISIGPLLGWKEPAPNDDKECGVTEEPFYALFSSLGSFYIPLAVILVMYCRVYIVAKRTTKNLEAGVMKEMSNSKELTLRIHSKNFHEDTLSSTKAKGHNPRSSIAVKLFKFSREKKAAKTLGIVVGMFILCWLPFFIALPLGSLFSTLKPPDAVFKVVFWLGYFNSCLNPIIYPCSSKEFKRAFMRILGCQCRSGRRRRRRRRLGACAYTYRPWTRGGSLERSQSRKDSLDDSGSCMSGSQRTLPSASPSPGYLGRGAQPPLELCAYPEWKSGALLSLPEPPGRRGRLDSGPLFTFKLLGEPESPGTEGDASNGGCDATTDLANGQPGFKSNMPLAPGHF
Method in brief: as §1

[6] = target: T3, α1d (rat receptor expressed in mouse fibroblasts) (Rattus norvegicus, UniProt P23944); test: Radioligand binding with [3H]-prazosin, α1d; conditions: read-out: Radioligand Binding Ki α1d (Rat)
T3 construct: expressed in transfected cells; host or cells: mouse fibroblasts
T3 sequence (P23944 1-561): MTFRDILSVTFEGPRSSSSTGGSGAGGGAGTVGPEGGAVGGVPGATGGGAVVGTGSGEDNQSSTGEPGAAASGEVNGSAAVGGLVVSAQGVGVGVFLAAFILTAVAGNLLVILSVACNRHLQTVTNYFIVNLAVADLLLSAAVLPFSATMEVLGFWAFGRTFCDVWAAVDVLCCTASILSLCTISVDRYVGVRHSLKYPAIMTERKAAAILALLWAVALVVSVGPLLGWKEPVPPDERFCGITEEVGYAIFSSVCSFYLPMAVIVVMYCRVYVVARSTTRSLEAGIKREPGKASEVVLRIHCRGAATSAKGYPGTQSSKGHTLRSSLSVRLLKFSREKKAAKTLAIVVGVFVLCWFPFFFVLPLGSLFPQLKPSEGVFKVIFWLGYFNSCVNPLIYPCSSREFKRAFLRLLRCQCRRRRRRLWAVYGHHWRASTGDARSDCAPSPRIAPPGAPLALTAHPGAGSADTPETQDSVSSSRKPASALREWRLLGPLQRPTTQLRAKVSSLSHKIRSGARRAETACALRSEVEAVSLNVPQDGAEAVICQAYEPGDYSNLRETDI
Method in brief: as §1

[7] = target: T4, α1A (rat epididymal vas deferens) (Rattus norvegicus, UniProt P43140); test: cell-based; conditions: rat epididymal vas deferens (values marked *); read-out: Agonist Tissue Response (pD2) α1A, test performed using rat epididymal vas deferens (converted)
T4 sequence (P43140 1-466): T1 sequence (P43140 1-466)

[8] = target: T5, α1B (rat spleen) (Rattus norvegicus, UniProt P15823); test: Agonist contraction of smooth muscle tissue, rat spleen; assay type: cell-based; conditions: read-out: Agonist Tissue Response (pD2) α1B (rat spleen) (converted)
T5 construct: α1B (rat spleen) and α1D (rat aorta) receptors; from tissue; host or cells: rat spleen
T5 sequence (P15823 1-515): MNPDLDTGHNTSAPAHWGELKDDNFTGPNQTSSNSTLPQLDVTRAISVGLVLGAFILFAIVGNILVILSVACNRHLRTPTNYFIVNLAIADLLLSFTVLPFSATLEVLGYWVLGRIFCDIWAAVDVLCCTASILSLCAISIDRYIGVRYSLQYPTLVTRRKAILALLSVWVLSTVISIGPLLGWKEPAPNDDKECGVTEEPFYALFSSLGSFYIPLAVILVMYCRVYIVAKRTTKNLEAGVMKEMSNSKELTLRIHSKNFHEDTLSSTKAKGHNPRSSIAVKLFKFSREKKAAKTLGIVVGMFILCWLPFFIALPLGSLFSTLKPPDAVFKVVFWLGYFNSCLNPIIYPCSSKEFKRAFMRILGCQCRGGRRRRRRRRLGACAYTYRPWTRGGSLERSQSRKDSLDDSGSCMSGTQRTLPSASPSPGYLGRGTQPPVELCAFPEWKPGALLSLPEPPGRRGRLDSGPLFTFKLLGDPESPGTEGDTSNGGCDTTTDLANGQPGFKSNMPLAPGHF

[9] = target: T6, α1D (rat aorta) (Rattus norvegicus, UniProt P23944); test: Agonist contraction of smooth muscle tissue, rat aorta; assay type: cell-based; conditions: read-out: Agonist Tissue Response (pD2) α1D (rat aorta) (converted)
T6 construct: α1B (rat spleen) and α1D (rat aorta) receptors; from tissue; host or cells: rat aorta strips, endothelium removed
T6 sequence (P23944 1-561): T3 sequence (P23944 1-561)

For `CS(=O)(=O)Nc1cccc2c1CCCC2c1c[nH]cn1.Cl` (stereo not drawn) [Example 8, N-[5-(1H-imidazol-4-yl)-5,6,7,8-tetrahydro-1-naphthalenyl]methanesulfonamide, hydrochloride], the “Mean MAP ED20” value [1] was 102 nmol/kg, the urethral pressure profile [2] was “corresponding increases in the urethral pressure” and the ED (5 mmHg IUP increase) [3] was 0.0255 µmol/kg.

`Cn1cncc1C1CCCc2c1ccc(O)c2NS(C)(=O)=O` (stereo not drawn) [Example 4, N-[2-hydroxy-5-(1-methyl-1H-imidazol-5-yl)-5,6,7,8-tetrahydro-1-naphthalenyl]methanesulfonamide, hydrochloride] showed a Ki [4] of 24.6 µM, a Ki [5] of 31.6 µM and a Ki [6] of 31.6 µM. The EC50 [7] was 309 µM, the EC50 [8] was > 1000 µM and the EC50 [9] was 95.5 µM.

`COc1ccc2c(c1NS(C)(=O)=O)CCCC2c1c[nH]cn1` (stereo not drawn) [Example 1, N-[5-(1H-imidazol-4-yl)-2-methoxy-5,6,7,8-tetrahydro-1-naphthalenyl]methanesulfonamide, hydrochloride] was tested, and the Ki [4] was 0.5 µM, the Ki [5] was 1.7 µM and the Ki [6] was 0.482 µM. For the same compound, the EC50 [7] was > 1000 µM, the EC50 [8] was 955 µM and the EC50 [9] was 5.5 µM.

`Cc1nc(C2CCCc3c2ccc(O)c3NS(C)(=O)=O)c[nH]1` (stereo not drawn) [Example 3, N-[2-hydroxy-5-(2-methyl-1H-imidazol-4-yl)-5,6,7,8-tetrahydro-1-naphthalenyl]methanesulfonamide, hydrochloride] was tested, and the Ki ([4]; rat submaxillary gland, [3H]-prazosin) was 0.991 µM, the Ki ([5]; hamster receptor expressed in mouse fibroblasts, [3H]-prazosin) was 50.4 µM and the Ki ([6]; rat receptor expressed in mouse fibroblasts, [3H]-prazosin) was 8.29 µM. For the same compound, the EC50 [7] was 1.95 µM, the EC50 ([8]; rat spleen) was 12.9 µM and the EC50 ([9]; rat aorta, endothelium removed) was 28.2 µM.
